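Cultured in 96-well plates, cells were exposed to test compound for 48 hours across five concentrations. At the GI50, growth is halved. TGI: concentration producing complete growth inhibition.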
System: MDA-MB-468 breast
Experiment: NCI anticancer screen, dose series, 48 h

Compound	GI50 [nM]	TGI [nM]
Cc1cc(C(O)CN(C)C)cc2c1ccc1cc(C(C)C)ccc12 (stereo unspecified)	1850	3470
O=S(=O)(NCCCNc1nccc(-c2[nH]c(-c3ccccc3)nc2-c2ccc(F)c(O)c2)n1)c1ccc(C(F)(F)F)cc1	2440	7700
C[C@@H](Nc1c(C#N)cnc2ccc(-c3cnc(N)nc3)cc12)c1ccccc1	722	5800
CC1COCC(C)N1C1=C(Cl)C(=O)c2ccccc2C1=O (stereo unspecified)	1590	3280
COc1cc([N+](=O)[O-])c2ncccc2c1[N+](=O)[O-]	1720	3670
C=CC1CN2CCC1CC2C(O)c1ccnc2ccccc12 (stereo unspecified)	> 100000	> 100000
CC1(C)OC2C(COS(N)(=O)=O)SC(n3cnc4cncnc43)C2O1 (stereo unspecified)	> 100000	> 100000
O=C(Nc1cccc(-n2cc(-c3ccncc3)c(-c3ccc(O)c(Cl)c3)n2)c1)c1cccc(C(F)(F)F)c1	3190	> 100000
Nc1[nH]c(=O)ncc1CO	> 100000	> 100000
CC(=O)Oc1ccc(/C=N/NC(N)=S)nc1	2750	15300
COc1cccc(/C=C/C(=O)c2cc3c(N)c(C(=O)Nc4cccc5ccccc45)sc3nc2C)c1	1070	3000
O=C(NCCCCCCCNC(=O)OCc1ccc2c(Cl)cc(Cl)c(O)c2n1)OCc1ccc2c(Cl)cc(Cl)c(O)c2n1	389	1200
COc1ccc(CCc2cc(OC)c(OC)c(OC)c2)cc1	59.9	> 100000
Cc1nc(N)nc2ccccc12	> 100000	> 100000
Oc1[nH]c2cc(Cl)ccc2c1/C=c1/ccc2c(c1)N=C(c1cc(F)cc(F)c1)N=2	2510	5980
CCC(CC(C)C)Nc1ccc(NC(CC)CC(C)C)cc1 (stereo unspecified)	11700	24000
CCOc1cc(-c2ccc[nH]2)[nH]c1/C=C1\N=C(C)C(C(=O)OC)=C1C	58.3	444
CC/C=C\C/C=C\C[C@H](O)C/C=C1/C(=O)C=C[C@@H]1C/C=C\CCCC(=O)OC	1470	3160
COc1cc(NC(=O)Nc2cnc(Nc3ccc(N4CCOCC4)cc3)nc2Oc2cccc(OC)c2)cc(OC)c1	1740	9540
CN1CCN(c2nc(-c3ccncc3)nc3sc4c(c23)CCCCCC4)CC1	5200	20200
CO[C@]1(CN2CCN3CCCC[C@@H]3C2)/C=C/C[C@H](C)[C@@H](C)S(=O)(=O)NC(=O)c2ccc3c(c2)N(C[C@@H]2CC[C@H]21)C[C@@]1(CCCc2cc(Cl)ccc21)CO3	166	1240
O=C(Nc1ccccc1C(=O)N/N=C(\c1ccccc1)c1ccccn1)c1ccc(F)cc1	192	1110
O=c1c2ccccc2oc2ccc(OCCCCCCN3CCCCCC3)cc12	1970	5870
Cc1cc(Cl)ccc1NS(=O)(=O)c1ccc(-c2cnc(C3CC3)o2)cc1	86.1	13700
Oc1ccc(Cl)cc1Cc1cc(Cl)ccc1O	2190	7290
Cc1ccc(C(C)C)cc1NC(=O)Nc1ccc([N+](=O)[O-])cc1	2390	6820
CC1(C)CC[C@]2(C(N)=O)CC[C@]3(C)C(=CC[C@@H]4[C@@]5(C)C/C(=C/c6ccncc6)C(=O)C(C)(C)[C@@H]5CC[C@]43C)[C@@H]2C1	2330	7440
CO[C@@]12[C@@H]3NC3CN1C1=C(C(=O)C(N)=C(C)C1=O)[C@@H]2COC(N)=O (stereo partly specified)	238	1280

— PubChem BioAssay (NCI)
